# Laboratory results: patent US5854004A, “Process for screening substances capable of modulating a receptor-dependent cellular signal transmission path” (Boehringer Ingleheim GmbH, priority 1991, dated 1998)
# Entries after “also recorded” stand apart in the source; their conditions may differ.
# Experiments:
# [1] = test system: A549 cells; assay: Induction of TRE-sensor-DNA (luciferase) in transiently transfected pretest cells, A549; details: for induction of pADneo(3TRE)BGluci: 10 ng TPA/ml or 20 μM forskolin, 18 h
# Method: (§1) Approximately 1×10^7 cells per transfection were detached from the surface of the culture dish using trypsin and centrifuged for 5 minutes at 1200 rpm at ambient temperature (Heraeus Minifuge), washed once with 5 ml of serum-free medium, centrifuged for 5 minutes at 1200 rpm and suspended in 1 ml of serum-free medium. Then the cells were mixed with 250 μg/ml DEAE-dextrane, 5 μg plasmid DNA and 50 μg/ml chloroquin, incubated for 30 minutes at 37° C., washed once with medium containing no FCS and incubated overnight at 37° C. with 10 ml of fresh serum-containing medium. Then the medium was changed and after 4 hours the cells were induced, either with 10 ng TPA/ml medium or with 20 μM forskolin. […] The cells were lysed by the addition of 100 μl lysing buffer (1% Triton X-100, 25 mM glycylglycine pH 7.8, 15 mM MgSO4, 4 mM EDTA and 1 mM […]), the lysate was centrifuged for 5 minutes and the supernatant was transferred into a fresh test tube. […] The measuring time for light emission was 10 seconds.
# (§2) The cell lines A549, HeLa and COS-7 were transiently transfected as described above by the addition of plasmid pBHluc1.3 and induced by the addition of TPA. Cells which were only transfected but not induced were used as a negative control.
# (§3) The cell lines A549, HeLa and COS-7 were transiently transfected by the addition of plasmid pADneo(3TRE)BGluci and induced by the addition of TPA or forskolin. Once again, cells which were only transfected but not induced were used as a negative control.
# (§4) The cell lines COS-7 and A549 were transiently transfected by the addition of plasmid pADneo(3×TREd16)BGluci, pADneo(3×TREd21)BGluci, pADneo(3×TREd24)BGluci, pADneo(3×TREd34)BGluci, pADneo(6×TREd16)BGluci, pADneo(6×TREd21)BGluci, pADneo(6×TREd24)BGluci or pADneo(6×TREd34)BGluci and induced by the addition of TPA or forskolin.
# [2] = test system: HeLa cells; assay: Induction of TRE-sensor-DNA (luciferase) in transiently transfected pretest cells, HeLa; details: 18 h; for induction of pADneo(3TRE)BGluci / induction of pBHluc1.3 by TPA or forskolin: 10 ng TPA/ml or 20 μM forskolin
# Method: as §1, §2, §3
# [3] = test system: COS-7 cells; assay: Induction of TRE-sensor-DNA (luciferase) in transiently transfected pretest cells, COS-7; details: for induction of pADneo(3TRE)BGluci / induction of pBHluc1.3 by TPA or forskolin: 10 ng TPA/ml or 20 μM forskolin, 18 h
# Method: as §1, §2, §3, §4
# [4] = biological target: human 5HT2-receptor (Homo sapiens, UniProt P28223); assay: Induction of pADneo2-C6-BGL (CRE) via 5-HT2-receptor in co-transfected COS-7 cells; type: cell-based; details: 20 μM forskolin or 10 μ α-methylserotonin-maleate
# Method: Induction was carried out with i) 20 μM forskolin (Sigma P8139), ii) 10 μα-methylserotonin-maleate (RBI M-110), and iii) 10 μα-methylserotonin-maleate and 10 μM ketanserin-tartrate (RBI S-006). […] It follows, from the above results, that, depending on 5-HT2 -receptors, only regulation elements which respond to IP3 /DAG (TRE), but not regulation elements which respond to cAMP (CRE) are selectively activated.
# [5] = test system: cell line A20; assay: Luciferase induction in stable TRE-pretest cell line A20 (A549, pBHluc1.3)
# Method: In order to produce a stable (pre-)test cell line for substances which influence the expression of the luciferase gene by direct or receptor-mediated modulation of the IP3 /DAC-signal transduction pathway, A549 cells were simultaneously transfected with the plasmid pBHluc1.3 and the selection plasmid pRSVneo by electroporation as follows: after removal of the medium the cells were detached from the surface by means of a trypsin/PBS solution, suspended in medium and sedimented for 5 minutes at 250×g. […] 0.8 ml of cell suspension were combined with 20 μg of pBHluc1.3 and 2 μg of pRSVneo. Both plasmids had previously been linearised with BamHI.
# (§5) 15-20 days after transfection, individual cell clones were transferred into 96-well microtitre plates and further cultivated. […] Approximately 40,000 cells in each clone were sown, in a procedure repeated 6 times, in 200 μl per well of a light-impervious 96-well microtitre plate coated with tissue culture (Microlite™, Dynatech Laboratories) and incubated overnight at 37° C. Three mixtures were treated with 10 ng TPA/ml and incubated for a further 8 hours. Then the medium was removed and the cells were washed twice with PBS.
# (§6) The pretest cell line A20 was transfected, as described under a), by electroporation with the plasmid pAHyg-NK2, which had previously been linearised with BglII. From the day after transfection onwards, the cells were grown in selection medium, as used for the cell line A20 and additionally enriched with 150 μg/ml hygromycin B (Sigma). Individual clones were tested for inducibility of the luciferase activity as described under a).
# [6] = biological target: T1, human neurokinin 2-receptor (Homo sapiens, UniProt P21452); assay: Luciferase activity in NK2-test cell line A20/NK2-122
# T1 sequence (P21452 1-398): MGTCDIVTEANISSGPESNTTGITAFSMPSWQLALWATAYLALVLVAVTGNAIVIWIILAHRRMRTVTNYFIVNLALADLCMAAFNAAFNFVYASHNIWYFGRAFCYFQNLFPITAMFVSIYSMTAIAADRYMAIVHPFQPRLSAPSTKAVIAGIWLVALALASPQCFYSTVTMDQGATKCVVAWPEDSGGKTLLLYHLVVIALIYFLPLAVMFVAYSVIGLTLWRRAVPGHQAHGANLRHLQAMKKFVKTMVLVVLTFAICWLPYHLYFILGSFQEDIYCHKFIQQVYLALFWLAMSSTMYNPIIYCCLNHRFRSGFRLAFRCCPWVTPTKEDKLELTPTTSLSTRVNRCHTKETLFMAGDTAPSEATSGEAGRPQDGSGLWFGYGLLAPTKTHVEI
# Method: as §5
# This Example illustrates the preparation of a test cell line for the human neurokinin 2 (NK2)-receptor which is coupled to the phospholipase C-signal transduction pathway. This test cell line makes it possible, by measurement of the luciferase activity, to identify substances which modulate the intracellular IP3 /DAG concentrations, depending on the receptor.
# as §6
# [7] = test system: cell line CHO C6-13; assay: Luciferase expression in CRE-pretest cell line CHO C6-13; details: for change in luciferase expression/activity: 3 hours treatment, FIG. 33
# Method: The transfection by electroporation was carried out as follows: after removal of the medium the cells were detached from the surface by means of a trypsin/PBS solution, suspended in medium and pelleted for 5 minutes at 250×g. The cells were washed in HBS (10 mM HEPES pH 7.4, 150 mM NaCl) and pelleted by centrifuging. The cells were suspended in HBS in a density of 1×10^7 cells/ml. 0.8 ml of cell suspension were mixed with 20 μg of DNA of the plasmid pADneo2-C6-BGL linearised with ScaI and transferred into an electroporation dish. […] After the electroporation the cells were diluted in the medium mentioned above, 20,000 cells per 90 mm culture dish was sown and incubated overnight at 37° C.
# Two batches of each were treated with 20 μM forskolin and incubated for a further 5 hours at 37° C. Then the medium was removed from all the cells and the cells were washed with PBS.
# Cells of the cell line CHO C6-13 were treated for 3 hours with various substances which alter the intracellular concentration of cAMP or IP3 /DAG or simulate a change in concentration, and also treated with receptor-specific agonists which influence the above-mentioned signal transduction mechanisms.
# [8] = test system: CHO C12-32; assay: Luciferase inducibility in CRE-pretest cell clone C12-32; type: cell-based, Chinese hamster; details: 20 μM forskolin, 5 hours
# Method: (This plasmid differs from the pADneo2-C6-BGL described in Example 1) in that the section containing the 6 CRE-elements is duplicated and the β-globin promotor is replaced by the TK-promotor (see Example 1 b)). In order to do this the SalI-HindIII-β-globin-promotor-fragment was replaced by a similarly cut fragment containing the TK-promotor (McKnight, 1980)).
# The transfection and testing of the cell clones were carried out as in Example 7 a).
# [9] = test system: A549 cells; details: Voraberger et al., 1991; cited from earlier work
# [10] = biological target: T2, human dopamine D1-receptor (Homo sapiens, UniProt P21728); assay: Induction of pADneo2-C6-BGL (CRE) via dopamine-D1-receptor in co-transfected COS-7 cells; details: COS-7; 20 μM forskolin or 1 μM apomorphine, 18 h
# [11] = biological target: human muscarinic M3-receptor (Homo sapiens, UniProt P20309); type: cell-based
# [12] = biological target: T2, human dopamine D1-receptor; assay: Induction of pBHluc1.3 (TRE) via dopamine-D1-receptor in co-transfected COS-7 cells; type: cell-based; details: 10 ng/ml TPA or 1 μM apomorphine, 18 h
structure (smiles),measurement,setting,value
C=C[C@@]1(C)CC(=O)[C@]2(O)[C@@]3(C)[C@@H](O)CCC(C)(C)[C@@H]3[C@H](O)[C@H](OC(C)=O)[C@@]2(C)O1 [forskolin],induction of pADneo(3TRE)BGluci,[1]; A549,not by forskolin
same,induction of pADneo(nTREdx)BGluci by forskolin,"[1]; A549, 20 μM forskolin",none of the constructions can be induced with forskolin
same,induction of pADneo(3TRE)BGluci,[2],not by forskolin
same,induction of pBHluc1.3 by TPA or forskolin,[2],not by forskolin
same,induction of pADneo(3TRE)BGluci,[3]; COS-7,not by forskolin
same,induction of pBHluc1.3 by TPA or forskolin,[3]; COS-7,not by forskolin
same,induction of pADneo(nTREdx)BGluci by forskolin,"[3]; COS-7, 20 μM forskolin",none of the constructions can be induced with forskolin
same,induction of luciferase expression (CRE),[4],induced by forskolin
same,induction of luciferase activity by forskolin,[5]; A20,did not result in any induction of luciferase activity
same,induction of luciferase activity by forskolin,[6]; A20/NK2-122,did not result in any induction of luciferase activity
same,"inducibility of luciferase by forskolin, clone C6-13","[7]; 20 μM forskolin, 5 hours",very high inducibility
same,change in luciferase expression/activity,[7],increased
same,luciferase induction at concentrations higher than 20 μM (attributed to toxic effects or excessively high cAMP level),[7]; > 20 μM forskolin,drop in luciferase induction at even higher concentrations
same,EC100,"[7]; Cricetulus griseus, read-out: concentration of maximum induction of the luciferase reporter gene",20 µM
same,time up to which induction does not change,[7]; after forskolin stimulation,4 h
same,time after stimulation at which increased luciferase activity can be detected,"[7]; forskolin, FIG. 35A",60 min
same,time to total induction of luciferase expression,"[7]; forskolin, FIG. 35A",2.5 h
same,dependency of ED50 levels on duration of treatment,"[7]; forskolin, FIG. 35B",virtually unaffected
same,"inducibility of luciferase by forskolin, clone C12-32",[8],very high inducibility
same,induction of 1.3 kb ICAM-1 fragment / pBHluc1.3,[9],cannot be activated by forskolin; also recorded: cannot be induced by forskolin
same,induction of luciferase expression (CRE),[10],induced by forskolin and by apomorphine
"CCCCCCCCCCCCCC(=O)O[C@@H]1[C@@H](C)[C@@]2(O)[C@@H](C=C(CO)C[C@]3(O)C(=O)C(C)=C[C@@H]23)[C@@H]2C(C)(C)[C@]12OC(C)=O [TPA, phorbol-12-myristat-13-acetate]",induction of pADneo(6×TREdx)BGluci depending on spacing of TRE-elements,"[1]; A549, 10 ng TPA/ml",higher when the spacing of the TRE-elements is smaller
same,"induction of pADneo(nTREdx)BGluci, 6 versus 3 TRE-elements","[1]; A549, 10 ng TPA/ml",the induction with TPA for the constructions with 6 TRE-elements is greater than for the constructions with 3 TRE-elements
same,induction of pADneo(3TRE)BGluci,[1]; A549,can be induced in the tested cells by TPA
same,fold induction at 0.01 µg/mL,"[1]; Homo sapiens, A549, 18 h, read-out: induction of pBHluc1.3 (luciferase)",> 10
same,induction of pADneo(3TRE)BGluci,[2],can be induced in the tested cells by TPA
same,induction of pBHluc1.3 by TPA or forskolin,[2],could also be induced by TPA
same,fold induction at 0.01 µg/mL,"[2]; Homo sapiens, read-out: induction of pBHluc1.3 (luciferase)",> 10
same,induction of pADneo(6×TREdx)BGluci depending on spacing of TRE-elements,"[3]; COS-7, 10 ng TPA/ml",higher when the spacing of the TRE-elements is smaller
same,"induction of pADneo(nTREdx)BGluci, 6 versus 3 TRE-elements","[3]; COS-7, 10 ng TPA/ml",the induction with TPA for the constructions with 6 TRE-elements is greater than for the constructions with 3 TRE-elements
same,induction of pADneo(3TRE)BGluci,[3]; COS-7,can be induced in the tested cells by TPA
same,induction of pBHluc1.3 by TPA or forskolin,[3]; COS-7,could also be induced by TPA
same,fold induction at 0.01 µg/mL,"[3]; Primates, COS-7, 18 h, read-out: induction of pBHluc1.3 (luciferase)",> 10
same,induction of luciferase expression,[11],induced both by TPA and by carbachol
same,induction of luciferase expression (TRE),[12],induced by TPA
same,maximum induction of luciferase activity by TPA,"[5]; A20, depending on the dose",≤ 18 times
same,fold induction at 0.01 µg/mL,"[5]; Homo sapiens, A549, 8 h, read-out: inducibility of luciferase activity, clone A20",15 to 20
same,maximum induction of luciferase activity by TPA,"[6]; A20/NK2-122, depending on the dose",≤ 18 times
same,change in luciferase expression/activity,[7],did not bring about any significant change in the luciferase activity
same,induction of 1.3 kb ICAM-1 fragment / pBHluc1.3,[9],can be induced by TPA
